From US10968210B2, “Diamino-alkylamino-linked arylsulfonamide compounds with selective activity in voltage-gated sodium channels” (Merck Sharp & Dohme Corp., priority 2016, dated 2021) come the findings set out here.

Assay [1] has as its target T1, human Nav 1.5 channels stably expressed in HEK 293 cells (Homo sapiens, UniProt Q14524).
T1 construct: expressed in transfected cells; host or cells: HEK 293
As to the kind of experiment: IonWorks Quattro automated patch-clamp, inactivated state block of Nav 1.5 (reported as ratio to Nav 1.7 potency). In kind it is cell-based. Particulars: selectivity for Nav 1.7 over Nav 1.5, both by IonWorks. The protocol: IonWorks® Experimental Procedure
Compounds were tested on human Nav 1.7 and Nav 1.5 channels stably expressed in HEK 293 cells. Sodium current measurements on IonWorks Quattro: An automated patch-clamp assay on the IonWorks Quattro platform (Molecular Devices) was used to measure state-dependent inhibition of human Nav 1.7 and Nav 1.5 channels. Cells were sealed on a planar substrate using the Population Patch Plate (PPC) technology. Electrical access was obtained using both nystatin and amphotericin. A double-pulse protocol was used for the determination of IC50 values for inactivated state block. Nav 1.7 and Nav 1.5 expressing cells were voltage clamped at −100 mV and −110 mV, respectively. A depolarizing prepulse to −10 mV (Nav 1.7) or −30 mV (Nav 1.5) for 1000 ms followed by a 10 ms repolarization to ˜100 mV (Nav1.7) or −110 mV (Nav 1.5) was given to generate fractional channel inactivation of ˜50%, followed by a 10 ms test pulse to −10 mV (Nav 1.7) or −30 mV (Nav 1.5) to measure peak current in control conditions and after compound addition. The following recording solutions were used (mM). External: 150 NaCl, 2 CaCl2, 5 KCl, 1 Mg Cl2, 10 HEPES, 12 Dextrose; internal: 120 CsF, 30 CsCl, 10 EGTA, 5 HEPES, 5 NaF, 2 MgCl2.
For all electrophysiology experiments, offline analysis was used to determine percent inhibition as a function of drug concentration. IC50 values were determined by fitting to the Hill equation.
The various compounds in Examples 1 through 4 and Tables 1 through 3 exemplified above were assayed for activity and selectivity using the foregoing IonWorks® technique. The results are reported in the following paragraph in a format expressing the identification of the compound with reference Example and compound (e.g. Ex 1-9 is Example 1, compound 9) followed by the observed potency in nM and the ratio of Nav1.7 potency: Nav1.5 potency as described here. Thus, Ex1-9: 1.7=65/ratio=641 identifies compound Example 1, compound 9 as having 65 nM potency for the Nav 1.7 sodium ion channel (as measured by IonWorks®) and a ratio of 641 Nav 1.7: Nav 1.5 potency, determined by IonWorks® measurement.

For assay [2], the target named is T2, human Nav 1.7 channels stably expressed in HEK 293 cells (Homo sapiens, UniProt Q15858).
T2 construct: expressed in transfected cells; host or cells: HEK 293
As to the kind of experiment: IonWorks Quattro automated patch-clamp, inactivated state block of Nav 1.7. Particulars: double-pulse protocol, HEK 293 cells held at -100 mV, read-out: potency for the Nav 1.7 sodium ion channel (IC50, IonWorks). The class given is cell-based. In outline:
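Inactivated-state block was recorded by automated perforated patch (nystatin plus amphotericin) using a double-pulse protocol. Holding was −100 mV (Nav1.7) or −110 mV (Nav1.5), with a 1000 ms prepulse to −10/−30 mV giving ~50% inactivation, then a 10 ms test pulse. IC50s came from Hill fits of peak current inhibition.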
A general note: In patch-clamp work, channel activity is measured electrically.

T1 sequence (Q14524 whole entry): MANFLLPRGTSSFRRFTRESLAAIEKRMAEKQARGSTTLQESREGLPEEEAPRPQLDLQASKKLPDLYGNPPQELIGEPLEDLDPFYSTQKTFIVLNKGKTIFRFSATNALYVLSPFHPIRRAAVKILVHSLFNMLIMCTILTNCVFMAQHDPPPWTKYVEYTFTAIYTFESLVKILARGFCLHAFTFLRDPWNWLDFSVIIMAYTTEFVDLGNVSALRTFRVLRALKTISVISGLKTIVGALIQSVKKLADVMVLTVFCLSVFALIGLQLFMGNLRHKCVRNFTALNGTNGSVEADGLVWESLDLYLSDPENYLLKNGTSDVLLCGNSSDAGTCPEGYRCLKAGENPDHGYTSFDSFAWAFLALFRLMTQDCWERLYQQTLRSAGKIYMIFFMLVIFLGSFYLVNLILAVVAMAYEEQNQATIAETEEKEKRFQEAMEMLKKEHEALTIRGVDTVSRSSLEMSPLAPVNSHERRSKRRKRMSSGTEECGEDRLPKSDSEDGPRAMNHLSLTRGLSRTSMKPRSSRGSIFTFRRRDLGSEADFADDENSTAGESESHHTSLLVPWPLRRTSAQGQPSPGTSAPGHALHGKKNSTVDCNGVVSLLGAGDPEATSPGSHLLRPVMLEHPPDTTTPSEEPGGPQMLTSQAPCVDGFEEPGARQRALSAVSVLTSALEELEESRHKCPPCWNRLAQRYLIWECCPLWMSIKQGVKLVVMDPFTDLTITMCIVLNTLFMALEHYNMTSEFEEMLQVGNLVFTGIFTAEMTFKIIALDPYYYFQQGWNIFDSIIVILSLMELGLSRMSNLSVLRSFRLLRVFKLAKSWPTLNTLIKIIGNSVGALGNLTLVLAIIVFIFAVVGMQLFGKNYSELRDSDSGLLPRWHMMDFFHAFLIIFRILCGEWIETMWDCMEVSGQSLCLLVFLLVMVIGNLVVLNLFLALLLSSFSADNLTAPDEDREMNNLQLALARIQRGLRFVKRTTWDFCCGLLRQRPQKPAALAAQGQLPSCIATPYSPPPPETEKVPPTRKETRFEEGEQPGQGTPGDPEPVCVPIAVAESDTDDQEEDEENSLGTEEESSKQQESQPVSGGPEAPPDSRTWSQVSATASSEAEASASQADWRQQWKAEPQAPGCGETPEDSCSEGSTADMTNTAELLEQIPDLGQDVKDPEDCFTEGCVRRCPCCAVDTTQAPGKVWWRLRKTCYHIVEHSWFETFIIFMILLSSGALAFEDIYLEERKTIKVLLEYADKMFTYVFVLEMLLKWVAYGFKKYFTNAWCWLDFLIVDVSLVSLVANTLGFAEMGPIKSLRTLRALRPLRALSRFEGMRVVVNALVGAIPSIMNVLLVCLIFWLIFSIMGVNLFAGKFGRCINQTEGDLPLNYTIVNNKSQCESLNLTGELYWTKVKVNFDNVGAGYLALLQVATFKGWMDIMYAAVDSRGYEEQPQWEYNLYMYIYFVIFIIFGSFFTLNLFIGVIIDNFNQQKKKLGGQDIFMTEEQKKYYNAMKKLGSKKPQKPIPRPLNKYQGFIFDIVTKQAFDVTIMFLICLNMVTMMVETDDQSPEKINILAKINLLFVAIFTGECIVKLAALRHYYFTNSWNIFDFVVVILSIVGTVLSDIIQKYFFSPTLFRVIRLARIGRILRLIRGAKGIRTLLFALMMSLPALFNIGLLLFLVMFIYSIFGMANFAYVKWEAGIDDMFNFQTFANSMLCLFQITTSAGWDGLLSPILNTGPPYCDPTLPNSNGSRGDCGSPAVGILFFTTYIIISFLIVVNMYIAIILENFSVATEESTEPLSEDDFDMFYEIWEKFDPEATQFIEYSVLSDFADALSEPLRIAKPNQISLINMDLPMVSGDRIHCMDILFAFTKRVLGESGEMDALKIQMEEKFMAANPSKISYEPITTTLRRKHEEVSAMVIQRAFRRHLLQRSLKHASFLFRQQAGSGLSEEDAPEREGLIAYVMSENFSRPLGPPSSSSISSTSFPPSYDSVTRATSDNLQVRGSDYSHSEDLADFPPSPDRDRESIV
T2 sequence (Q15858 whole entry): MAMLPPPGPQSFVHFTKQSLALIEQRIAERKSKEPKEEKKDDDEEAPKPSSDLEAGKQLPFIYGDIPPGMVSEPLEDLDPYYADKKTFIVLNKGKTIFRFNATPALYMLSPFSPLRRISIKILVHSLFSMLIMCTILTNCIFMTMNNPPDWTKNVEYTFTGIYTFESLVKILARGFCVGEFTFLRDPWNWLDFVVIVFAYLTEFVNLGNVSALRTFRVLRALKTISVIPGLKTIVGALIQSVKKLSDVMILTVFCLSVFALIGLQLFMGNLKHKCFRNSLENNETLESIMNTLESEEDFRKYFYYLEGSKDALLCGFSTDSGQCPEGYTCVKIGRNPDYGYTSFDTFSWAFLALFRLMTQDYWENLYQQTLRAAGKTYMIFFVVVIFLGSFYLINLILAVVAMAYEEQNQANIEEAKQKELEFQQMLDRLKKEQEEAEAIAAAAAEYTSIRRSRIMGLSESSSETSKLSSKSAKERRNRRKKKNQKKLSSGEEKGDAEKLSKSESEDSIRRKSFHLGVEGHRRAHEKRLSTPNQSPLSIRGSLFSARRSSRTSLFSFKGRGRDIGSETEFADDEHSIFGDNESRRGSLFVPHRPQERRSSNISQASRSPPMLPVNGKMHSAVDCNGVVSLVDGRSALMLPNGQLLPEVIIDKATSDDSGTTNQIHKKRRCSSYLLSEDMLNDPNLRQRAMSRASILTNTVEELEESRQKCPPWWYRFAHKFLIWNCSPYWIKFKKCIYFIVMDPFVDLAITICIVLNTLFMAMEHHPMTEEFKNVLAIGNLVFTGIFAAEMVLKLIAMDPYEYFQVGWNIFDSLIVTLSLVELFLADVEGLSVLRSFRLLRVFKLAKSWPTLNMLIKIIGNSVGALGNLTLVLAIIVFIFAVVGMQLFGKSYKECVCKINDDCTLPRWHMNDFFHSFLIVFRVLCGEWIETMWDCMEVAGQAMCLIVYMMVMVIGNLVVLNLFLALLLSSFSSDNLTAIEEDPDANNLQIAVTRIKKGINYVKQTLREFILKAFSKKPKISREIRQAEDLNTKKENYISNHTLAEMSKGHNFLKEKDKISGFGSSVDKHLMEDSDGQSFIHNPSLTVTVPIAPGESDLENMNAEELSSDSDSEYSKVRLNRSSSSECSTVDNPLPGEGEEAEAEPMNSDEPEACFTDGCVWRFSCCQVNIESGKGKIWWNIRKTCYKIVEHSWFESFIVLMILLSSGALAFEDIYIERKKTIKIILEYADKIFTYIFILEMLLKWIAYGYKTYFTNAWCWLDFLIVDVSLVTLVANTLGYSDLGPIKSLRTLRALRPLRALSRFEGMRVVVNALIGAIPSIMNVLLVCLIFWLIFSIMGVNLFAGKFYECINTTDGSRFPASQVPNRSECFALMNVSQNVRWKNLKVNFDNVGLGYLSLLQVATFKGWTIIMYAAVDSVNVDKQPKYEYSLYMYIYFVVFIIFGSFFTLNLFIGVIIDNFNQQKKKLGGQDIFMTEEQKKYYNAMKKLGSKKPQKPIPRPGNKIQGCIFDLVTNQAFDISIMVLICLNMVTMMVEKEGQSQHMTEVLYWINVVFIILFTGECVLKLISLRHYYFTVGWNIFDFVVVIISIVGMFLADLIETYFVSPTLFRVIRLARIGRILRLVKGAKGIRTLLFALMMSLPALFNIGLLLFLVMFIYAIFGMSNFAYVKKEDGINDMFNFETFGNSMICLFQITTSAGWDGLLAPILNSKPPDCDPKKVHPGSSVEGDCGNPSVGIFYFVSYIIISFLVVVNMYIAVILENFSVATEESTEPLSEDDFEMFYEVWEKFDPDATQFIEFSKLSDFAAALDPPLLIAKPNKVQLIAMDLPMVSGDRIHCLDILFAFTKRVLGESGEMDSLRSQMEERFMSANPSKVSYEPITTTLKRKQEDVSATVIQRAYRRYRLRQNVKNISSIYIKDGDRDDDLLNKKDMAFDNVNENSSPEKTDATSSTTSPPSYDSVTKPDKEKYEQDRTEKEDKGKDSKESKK

By IC50 is commonly meant the concentration that inhibits the measured activity by half. Regarding `N#C[C@H]1CN[C@H](CNCCCCNc2cc(F)c(S(=O)(=O)Nc3nccs3)cc2Cl)C1` [Ex 8-7, 5-chloro-4-{[4-({[(2S,4R)-4-cyanopyrrolidin-2-yl]-methyl}amino)butyl]amino}-2-fluoro-N-1,3-thiazol-2-ylbenzenesulfonamide], in assay [1], the “ratio of Nav 1.7 : Nav 1.5 potency (IonWorks)” value (from here on “ratio”) is more than 380. Besides, the IC50 in assay [2] was 87 nM.

For the compound `O=S(=O)(Nc1nccs1)c1cc(Cl)c(NCCCCNC[C@H]2C[C@@H](c3ccccc3)CN2)cc1F` [Ex 8-11, 5-chloro-2-fluoro-4-{[4-({[(2R,4S)-4-phenylpyrrolidin-2-yl]-methyl}amino)butyl]amino}-N-1,3-thiazol-2-yl-benzenesulfonamide], the “ratio” value in assay [1] is listed as more than 2360. In assay [2], the IC50 worked out at 14 nM.

On to `O=S(=O)(Nc1nccs1)c1cc(Cl)c(NCCCCNCC2CCC(c3ccccc3)CN2)cc1F` (stereo not shown) [Ex 8-14, 5-chloro-2-fluoro-4-[(4-{[(5-phenyl-piperidin-2-yl)-methyl]amino}butyl)amino]-N-1,3-thiazol-2-yl-benzenesulfonamide], for which the “ratio” value in assay [1] is recorded as 2290. Moreover, the IC50 in assay [2] came out at 14 nM.

For the compound `CO[C@H]1CN[C@H](CNCCCCNc2cc(F)c(S(=O)(=O)Nc3nccs3)cc2Cl)C1` [Ex 8-16], the “ratio” value in assay [1] is reported as more than 520. The IC50 in assay [2] came out at 63 nM.

For `O=S(=O)(Nc1nccs1)c1cc(Cl)c(NCCCCCNCC2CCCNC2)cc1F` (stereo not shown) [Ex 9-04, 5-chloro-2-fluoro-4-({5-[(piperidin-3-ylmethyl)-amino]-pentyl}amino)-N-1,3-thiazol-2-yl-benzenesulfonamide], the “ratio” value in assay [1] is listed as more than 1320. In assay [2], the IC50 stood at 25 nM.

For the compound `C[C@@H](N)CNCCCCCNc1cc(F)c(S(=O)(=O)Nc2nccs2)cc1Cl` [Ex 9-05, 4-[(5-{[(2R)-2-aminopropyl]-amino}penty)amino]-5-chloro-2-fluoro-N-1,3-thiazol-2-yl-benzenesulfonamide], the “ratio” value in assay [1] is on record as more than 420. Moreover, the IC50 in assay [2] is 79 nM.

`O=S(=O)(Nc1nccs1)c1cc(Cl)c(NCCCCCNCC2CCN2)cc1F` (stereo not shown) [Ex 9-06, 4-({5-[(azetidin-2-ylmethyl)amino]-pentyl}amino)-5-chloro-2-fluoro-N-1,3-thiazol-2-yl-benzenesulfonamide]: the “ratio” value in assay [1] is more than 160. The half-inhibitory concentration (IC50) in assay [2] was 200 nM.

As for `O=S(=O)(Nc1nccs1)c1cc(Cl)c(NCC(CCNC[C@@H]2CCCN2)c2ccccc2)cc1F` (stereo partly drawn) [Ex 10-3, 5-chloro-2-fluoro-4-((2-phenyl-4-(((S)-pyrrolidin-2-ylmethyl)amino)butyl)amino)-N-(thiazol-2-yl)benzenesulfonamide], the “ratio” value in assay [1] is more than 423. Besides, the half-inhibitory concentration (IC50) in assay [2] was found to be 78 nM.

In the case of `NC[C@H]1CCN1CCCCNc1cc(F)c(S(=O)(=O)Nc2ncns2)cc1Cl` [Ex 16-02, 4-({4-[(2R)-2-(aminomethyl)-azetidin-1-yl]butyl}amino)-5-chloro-2-fluoro-N-1,2,4-thiadiazol-5-yl-benzene-sulfonamide], the “ratio” value in assay [1] is more than 1650. In addition, in assay [2], the IC50 is 20 nM.

As for `CN[C@@H]1CCN(CCCCNc2cc(F)c(S(=O)(=O)Nc3ncns3)cc2Cl)C1` [Ex 16-03, 5-chloro-2-fluoro-4-({4-[(3R)-3-(methylamino)pyrrolidin-1-yl]-butyl}-amino)-N-1,2,4-thiadiazol-5-ylbenzene-sulfonamide], the “ratio” value in assay [1] worked out at 1930. The IC50 in assay [2] came to 14 nM.

In the case of `O=S(=O)(Nc1ncc(F)s1)c1cc(Cl)c(NCCCCNCCNC2C3CC4CC(C3)CC2C4)cc1F` (stereo not shown) [Ex 16-07, 5-chloro-2-fluoro-N-(5-fluoro-1,3-thiazol-2-yl)-4-[(4-{[2-(tricyclo[3.3.1.1~3,7~]dec-2-yl-amino)-ethyl]amino}butyl)-amino]-benzene-sulfonamide], in assay [1], the “ratio” value is given as more than 17400. Also, the IC50 in assay [2] is 1.9 nM.

As to `NC[C@@H]1CCN1CCCCNc1cc(F)c(S(=O)(=O)Nc2ncc(F)s2)cc1Cl` [Ex 16-11, 4-({4-[(2S)-2-(aminomethyl)azetidin-1-yl]-butyl}amino)-5-chloro-2-fluoro-N-(5-fluoro-1,3-thiazol-2-yl)-benzene-sulfonamide], in assay [1], the “ratio” value was more than 1530. Besides, the half-inhibitory concentration (IC50) in assay [2] came to 15 nM.

Turning to `O=S(=O)(Nc1ncc(F)s1)c1cc(Cl)c(NCCCCN2C[C@H]3CCCN[C@H]3C2)cc1F` [Ex 16-23, 5-chloro-2-fluoro-N-(5-fluoro-1,3-thiazol-2-yl)-4-({4-[(4aR,7aR)-octahydro-6H-pyrrolo[3,4-b]pyridin-6-yl]butyl}amino)benzene-sulfonamide], the “ratio” value in assay [1] is recorded as more than 2357. Further, the IC50 in assay [2] was found to be 14 nM.

Regarding `N#Cc1cc(S(=O)(=O)Nc2nccs2)c(F)cc1NCCCCN[C@@H]1CCNC1` [Ex 16-39, 5-cyano-2-fluoro-4-({4-[(3R)-pyrrolidin-3-ylamino]-butyl}amino)-N-1,3-thiazol-2-yl-benzenesulfonamide], the “ratio” value in assay [1] is given as more than 917. For the same compound, in assay [2], the IC50 was determined as 36 nM.

With `NCC(F)CNCCCCNc1cc(F)c(S(=O)(=O)Nc2ncc(F)s2)cc1Cl` (stereo not shown) [Ex 16-46, 4-({4-[(3-amino-2-fluoro-propyl)amino]butyl}amino)-5-chloro-2-fluoro-N-(5-fluoro-1,3-thiazol-2-yl)-benzenesulfonamide], in assay [1], the “ratio” value is more than 970. For the same compound, the half-inhibitory concentration (IC50) in assay [2] is 34 nM.

In the case of `CNCCNCCCCNc1cc(F)c(S(=O)(=O)Nc2ncns2)cc1F` [Ex 16-47, 2,5-difluoro-4-[(4-{[2-(methylamino)ethyl]amino}-butyl)amino]-N-1,2,4-thiadiazol-5-ylbenzene-sulfonamide], the “ratio” value in assay [1] is listed as more than 460. In addition, the IC50 in assay [2] worked out at 74 nM.

In the case of `CNCCNCCCCNc1cc(F)c(S(=O)(=O)Nc2nc(C)cs2)cc1Cl` [Ex 16-51, 5-chloro-2-fluoro-4-[(4-{[2-(methylamino)ethyl]amino}-butyl)amino]-N-(4-methyl-1,3-thiazol-2-yl)benzene-sulfonamide], the “ratio” value in assay [1] is more than 943. In assay [2], the IC50 came to 35 nM.
